Among the data in patent US7045532B2 (Millennium Pharmaceuticals, Inc., priority 1999, dated 2006) are Ki values, retold here.

Like-named read-outs stand apart in the source and are kept apart here. Some results are limits rather than exact numbers.

Experiment [1] addresses T1, Carboxypeptidase A (Bos taurus, UniProt P00730).
T1 sequence (P00730 111-419): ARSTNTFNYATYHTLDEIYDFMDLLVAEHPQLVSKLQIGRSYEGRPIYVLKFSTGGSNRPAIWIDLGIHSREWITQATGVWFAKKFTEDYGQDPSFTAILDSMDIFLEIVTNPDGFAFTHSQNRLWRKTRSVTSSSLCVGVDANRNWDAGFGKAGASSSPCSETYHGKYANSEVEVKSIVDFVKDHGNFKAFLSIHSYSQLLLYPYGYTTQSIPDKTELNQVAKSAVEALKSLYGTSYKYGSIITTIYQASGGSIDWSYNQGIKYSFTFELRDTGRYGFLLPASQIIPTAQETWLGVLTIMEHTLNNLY
Description: Carboxypeptidase A activity assay. It is filed as biochemical. The following applies: Ki class; compounds tested in 5% DMSO, 12 concentrations. The gist of the method:
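Bovine carboxypeptidase A activity followed at 328 nm in 5% DMSO, reaction stopped with EDTA. Activity measured at 12 compound concentrations. Ki derived from apparent Ki as Ki=Kiapp/(1+[S]/Km).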

Experiment [2] has as its target ACE-2 (Rattus norvegicus, UniProt Q5EGZ1). The experiment is described as follows: ACE-2 Competitive Substrate Assay, rat ACE-2. The conditions noted are these: Ki class, compounds tested in 5% DMSO. It is filed as biochemical.
Experiment [3] deals with T2, ACE (Sigma, A2580) (Sus scrofa, UniProt F1RRW5).
T2 construct: ACE from porcine kidney; purchased Sigma A2580; host or cells: porcine kidney
T2 sequence (F1RRW5 34-1309): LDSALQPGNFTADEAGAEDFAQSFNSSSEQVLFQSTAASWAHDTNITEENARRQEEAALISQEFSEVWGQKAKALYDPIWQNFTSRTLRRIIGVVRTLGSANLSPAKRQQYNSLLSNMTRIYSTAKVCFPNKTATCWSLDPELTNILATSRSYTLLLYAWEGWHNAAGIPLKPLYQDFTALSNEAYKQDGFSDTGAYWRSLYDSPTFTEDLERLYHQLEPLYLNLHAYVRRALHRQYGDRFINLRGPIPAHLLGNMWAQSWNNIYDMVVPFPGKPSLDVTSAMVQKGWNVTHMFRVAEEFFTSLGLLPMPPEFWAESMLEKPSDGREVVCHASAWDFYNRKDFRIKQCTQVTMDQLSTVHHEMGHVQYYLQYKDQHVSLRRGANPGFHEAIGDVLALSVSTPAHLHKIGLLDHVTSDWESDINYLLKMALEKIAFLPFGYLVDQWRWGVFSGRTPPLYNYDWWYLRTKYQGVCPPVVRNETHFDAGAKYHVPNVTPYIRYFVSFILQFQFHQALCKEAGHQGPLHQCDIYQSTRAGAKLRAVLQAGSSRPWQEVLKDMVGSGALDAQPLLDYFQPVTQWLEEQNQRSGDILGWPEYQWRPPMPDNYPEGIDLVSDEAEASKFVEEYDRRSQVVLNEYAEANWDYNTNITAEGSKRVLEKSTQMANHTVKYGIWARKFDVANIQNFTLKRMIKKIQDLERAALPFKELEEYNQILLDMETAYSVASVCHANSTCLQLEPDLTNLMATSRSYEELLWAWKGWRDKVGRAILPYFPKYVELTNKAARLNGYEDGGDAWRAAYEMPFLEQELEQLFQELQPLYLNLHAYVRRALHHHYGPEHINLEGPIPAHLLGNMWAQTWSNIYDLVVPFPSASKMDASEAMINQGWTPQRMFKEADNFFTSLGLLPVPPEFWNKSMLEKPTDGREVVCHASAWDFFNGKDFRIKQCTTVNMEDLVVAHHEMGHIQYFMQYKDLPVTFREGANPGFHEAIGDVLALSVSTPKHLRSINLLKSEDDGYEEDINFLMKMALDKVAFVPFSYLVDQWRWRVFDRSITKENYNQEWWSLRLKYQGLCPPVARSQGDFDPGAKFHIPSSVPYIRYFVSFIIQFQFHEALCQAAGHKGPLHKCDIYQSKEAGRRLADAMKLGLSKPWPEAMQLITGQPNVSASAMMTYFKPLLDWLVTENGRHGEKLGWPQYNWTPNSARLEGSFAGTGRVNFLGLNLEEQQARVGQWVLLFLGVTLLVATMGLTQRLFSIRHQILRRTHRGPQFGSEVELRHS
Description: ACE enzymatic activity assay. It is filed as biochemical, porcine. The conditions noted are these: Ki class; compounds tested in 5% DMSO, 12 concentrations. The gist of the method: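 ACE (1 nM final) in 50 mM HEPES, 300 mM NaCl, 0.01% Brij-35, pH 7.5, with compound in 5% DMSO at 12 concentrations, 25 °C. Substrate cleavage run ~30 min, stopped with EDTA; fluorescence read at excitation 320 nm, emission 405 nm.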

Experiment [4] concerns the target T3, ACE-2 (Homo sapiens, UniProt Q9BYF1).
T3 construct: a stop codon inserted after the serine immediately preceding the transmembrane domain; made in house; host or cells: CHO K1 cells (transient transfection, purified from conditioned medium)
Description: ACE-2 Competitive Substrate Assay (ACS Assay). The following applies: Ki class, compounds tested in 5% DMSO, read-out: Human ACE-2 Activity. It is filed as biochemical.

T3 sequence (Q9BYF1 18-740 limits assumed): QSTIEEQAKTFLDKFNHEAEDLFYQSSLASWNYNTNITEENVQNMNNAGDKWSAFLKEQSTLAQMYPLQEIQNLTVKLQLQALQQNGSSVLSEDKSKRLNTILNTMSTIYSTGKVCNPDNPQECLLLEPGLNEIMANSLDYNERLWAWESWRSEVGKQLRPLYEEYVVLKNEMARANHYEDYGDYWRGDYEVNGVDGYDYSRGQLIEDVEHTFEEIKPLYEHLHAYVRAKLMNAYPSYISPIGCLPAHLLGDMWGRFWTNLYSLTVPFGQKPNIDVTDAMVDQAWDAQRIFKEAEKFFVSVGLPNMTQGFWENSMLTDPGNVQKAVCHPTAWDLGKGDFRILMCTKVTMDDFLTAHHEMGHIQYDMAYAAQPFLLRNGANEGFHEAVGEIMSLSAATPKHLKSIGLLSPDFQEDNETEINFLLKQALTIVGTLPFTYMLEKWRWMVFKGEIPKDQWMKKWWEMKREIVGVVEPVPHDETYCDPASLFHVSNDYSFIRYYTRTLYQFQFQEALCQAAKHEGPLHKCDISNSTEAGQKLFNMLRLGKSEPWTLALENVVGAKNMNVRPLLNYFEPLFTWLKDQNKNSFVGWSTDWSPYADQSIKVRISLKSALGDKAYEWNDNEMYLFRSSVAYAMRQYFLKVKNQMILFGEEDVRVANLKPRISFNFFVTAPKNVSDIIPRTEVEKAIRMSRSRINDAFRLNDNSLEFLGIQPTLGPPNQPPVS
Chain of ACE-2 (Rattus norvegicus, UniProt Q5EGZ1) (Q5EGZ1 18-805): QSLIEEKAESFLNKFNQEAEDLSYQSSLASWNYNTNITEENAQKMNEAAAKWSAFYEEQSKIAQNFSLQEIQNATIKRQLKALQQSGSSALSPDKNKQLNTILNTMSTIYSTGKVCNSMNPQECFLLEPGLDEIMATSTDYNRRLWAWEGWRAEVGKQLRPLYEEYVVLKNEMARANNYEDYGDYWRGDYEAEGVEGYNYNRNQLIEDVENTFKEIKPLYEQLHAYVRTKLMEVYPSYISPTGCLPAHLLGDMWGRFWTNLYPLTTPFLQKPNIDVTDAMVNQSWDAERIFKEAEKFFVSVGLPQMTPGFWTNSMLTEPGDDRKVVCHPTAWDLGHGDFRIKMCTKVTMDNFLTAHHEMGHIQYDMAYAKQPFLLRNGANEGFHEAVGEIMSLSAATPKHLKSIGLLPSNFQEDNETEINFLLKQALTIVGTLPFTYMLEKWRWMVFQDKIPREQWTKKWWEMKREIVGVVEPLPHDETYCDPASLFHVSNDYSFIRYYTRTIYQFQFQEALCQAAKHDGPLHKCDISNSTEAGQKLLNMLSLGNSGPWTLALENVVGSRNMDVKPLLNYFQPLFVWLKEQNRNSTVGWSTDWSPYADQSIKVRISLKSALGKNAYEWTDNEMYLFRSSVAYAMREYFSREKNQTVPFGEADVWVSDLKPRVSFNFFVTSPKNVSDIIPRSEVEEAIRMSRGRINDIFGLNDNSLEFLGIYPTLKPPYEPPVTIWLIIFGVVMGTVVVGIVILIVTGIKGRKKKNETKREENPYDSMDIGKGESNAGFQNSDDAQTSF

As to `CC(C)CC(N[C@H](Cc1c[nH]cn1)C(=O)O)C(=O)O` (single isomer, unassigned) [BI, 2-[1-Carboxy-2-(1H-imidazol-4-yl)-ethylamino]4-methyl-pentanoic acid], the Ki in experiment [1] was above 50 µM; in experiment [2] (12 concentrations), above 0.5 µM; in experiment [3], above 50 µM; in experiment [4] (12 concentrations), above 0.5 µM.
Consider `CC(C)CC(N[C@@H](Cc1c[nH]cn1)C(=O)O)C(=O)O` (single isomer, unassigned) [BK, 2-[1-Carboxy-2-(1H-imidazol-4-yl)-ethylamino]4-methyl-pentanoic acid], for which the Ki was above 50 µM in experiment [1], 0.1 to 0.5 µM in experiment [2] (12 concentrations), above 50 µM in experiment [3] and above 0.5 µM in experiment [4] (12 concentrations).
As for `CC(C)CC(N[C@@H](Cc1c[nH]cn1)C(=O)O)C(=O)O` (single isomer, unassigned) [BL, 2-[1-Carboxy-2-(1H-imidazol-4-yl)-ethylamino]4-methyl-pentanoic acid], the results for the Ki in experiment [1], in experiment [2] (12 concentrations) and in experiment [3] were above 50 µM, above 0.5 µM and 10 to 50 µM, respectively.
In the case of `COC(=O)[C@H](Cc1c[nH]cn1)NC(CC(C)C)C(=O)O` (single isomer, unassigned) [CT, 2-[2-(1H-Imidazol-4-yl)-1-methoxycarbonyl-ethylamino]-4-methyl-pentanoic acid], the Ki in experiment [1] was above 50 µM; in experiment [2] (12 concentrations), above 0.5 µM; in experiment [3] it was above 50 µM; in experiment [4] (12 concentrations), above 0.5 µM.
Turning to `COC(=O)[C@H](Cc1c[nH]cn1)NC(CC(C)C)C(=O)O` (single isomer, unassigned) [CU, 2-[2-(1H-Imidazol-4-yl)-1-methoxycarbonyl-ethylamino]-4-methyl-pentanoic acid], the Ki is above 50 µM in experiment [1], 0.1 to 0.5 µM in experiment [2] (12 concentrations) and above 50 µM in experiment [3].
Regarding `CCCC(NC(Cc1c[nH]cn1)C(=O)O)C(=O)O` (single isomer, unassigned) [DJ, 2-[1-Carboxy-2-(1H-imidazol-4-yl)-ethylamino)pentanoic acid], the Ki in experiment [1] is above 50 µM; in experiment [2] (12 concentrations), 0.1 to 0.5 µM; in experiment [3], above 50 µM; in experiment [4] (12 concentrations) it was above 0.5 µM.
With `CCCC(N[C@@H](Cc1c[nH]cn1)C(=O)O)C(=O)O` (single isomer, unassigned) [DK, 2-[1-Carboxy-2-(1H-imidazol-4-yl)-ethylamino)pentanoic acid], the Ki in experiment [1] was above 50 µM; in experiment [2] (12 concentrations) it was above 0.5 µM; in experiment [3] it was 10 to 50 µM; in experiment [4] (12 concentrations) it was above 0.5 µM.
Consider `CC(C)CC(N[C@@H](Cc1cn(Cc2ccccc2)cn1)C(=O)O)C(=O)O` (single isomer, unassigned) [DL, 2-[2-(1-Benzyl-1H-imidazol-4-yl)-1-carboxy-ethylamino]-4-methyl-pentanoic acid], for which the Ki is above 50 µM in experiment [1], above 0.5 µM in experiment [2] (12 concentrations), above 50 µM in experiment [3] and above 0.5 µM in experiment [4] (12 concentrations).
Turning to `O=C(O)C(Cc1ccc(O)cc1)N[C@@H](Cc1c[nH]cn1)C(=O)O` (single isomer, unassigned) [DN, 2-[1-Carboxy-2-(4-hydroxy-phenyl)-ethylamino]-3-(1H-imidazol-4-yl)-propionic acid], the Ki was above 50 µM in experiment [1], above 0.5 µM in experiment [2] (12 concentrations), above 50 µM in experiment [3] and above 0.5 µM in experiment [4] (12 concentrations).
For the molecule `O=C(O)C(Cc1ccc(O)cc1)N[C@@H](Cc1c[nH]cn1)C(=O)O` (single isomer, unassigned) [DO, 2-[1-Carboxy-2-(4-hydroxy-phenyl)-ethylamino]-3-(1H-imidazol-4-yl)-propionicacid], the Ki in experiment [1] is above 50 µM; in experiment [2] (12 concentrations), 0.1 to 0.5 µM; in experiment [3], 10 to 50 µM.
Regarding `CCCCC(N[C@@H](Cc1c[nH]cn1)C(=O)O)C(=O)O` (single isomer, unassigned) [ED, 2-[1-Carboxy-2-(1H-imidazol-4-yl)-ethylamino]hexanoic acid], the Ki is above 50 µM in experiment [1], 0.1 to 0.5 µM in experiment [2] (12 concentrations), above 50 µM in experiment [3] and above 0.5 µM in experiment [4] (12 concentrations).
With `CCCCC(N[C@@H](Cc1c[nH]cn1)C(=O)O)C(=O)O` (single isomer, unassigned) [EF, 2-[1-Carboxy-2-(1H-imidazol-4-yl)-ethylamino]hexanoic acid], the figures for the Ki in experiment [1], in experiment [2] (12 concentrations) and in experiment [3] were above 50 µM, above 0.5 µM and 10 to 50 µM, respectively.
On to `CC(C)CC(N[C@@H](Cc1cncn1COCc1ccccc1)C(=O)O)C(=O)O` (single isomer, unassigned) [EN, 2-[2-(3-Benzyloxymethyl-3H-imidazol-4-yl)-1-carboxy-ethylamino]-4-methyl-pentanoic acid], for which the Ki in experiment [1] was above 50 µM; in experiment [2] (12 concentrations), 0.1 to 0.5 µM; in experiment [3], above 50 µM; in experiment [4] (12 concentrations), 0.1 to 0.5 µM.
Turning to `CC(C)CC(N[C@@H](Cc1cncn1COCc1ccccc1)C(=O)O)C(=O)O` (single isomer, unassigned) [EO, 2-[2-(3-Benzyloxymethyl-3H-imidazol-4-yl)-1-carboxy-ethylamino]-4-methyl-pentanoic acid], the Ki in experiment [1] was above 50 µM; in experiment [2] (12 concentrations) it was above 0.5 µM; in experiment [3], above 50 µM; in experiment [4] (12 concentrations), above 0.5 µM.
In the case of `CC(C)CC(N[C@@H](Cc1cncn1COCc1ccccc1)C(N)=O)C(=O)O` (single isomer, unassigned) [FC, 2-[2-(3-Benzyloxymethyl-3H-imidazol-4-yl)-1-carbamoyl-ethylamino]-4-methyl-pentanoic acid], the Ki is above 50 µM in experiment [1], above 0.5 µM in experiment [2] (12 concentrations) and above 50 µM in experiment [3].
In the case of `CCCCC(N[C@@H](Cc1cncn1Cc1ccccc1)C(=O)O)C(=O)O` (single isomer, unassigned) [FZ, 2-[2-(3-Benzyl-3H-imidazol-4-yl)-1-carboxy-ethylamino]-hexanoicacid], the figures for the Ki in experiment [1], in experiment [2] (12 concentrations) and in experiment [3] were above 50 µM, above 0.5 µM and above 50 µM, respectively.
In the case of `CCC(C)C(NC(Cc1cncn1Cc1ccccc1)C(=O)O)C(=O)O` (single isomer, unassigned) [GD, 2-[2-(3-Benzyl-3H-imidazol-4-yl)-1-carboxy-ethylamino]-3-methyl-pentanoic acid], the figures for the Ki in experiment [1], in experiment [2] (12 concentrations) and in experiment [3] were above 50 µM, above 0.5 µM and above 50 µM, respectively.
Consider `O=C(O)C(Cc1ccccc1)N[C@@H](Cc1cnc[nH]1)C(=O)O` (stereo partly drawn) [EQ, 2-(1-Carboxy-2-phenyl-ethylamino)-3-(1H-imidazol-4-yl)-propionicacid], for which the Ki in experiment [1] was 10 to 50 µM; in experiment [2] (12 concentrations) it was 0.1 to 0.5 µM; in experiment [3], above 50 µM.
For `CC(C)C[C@H](N[C@@H](Cc1ccn(Cc2ccccc2)n1)C(=O)O)C(=O)O` [IN, (S,S)-2-[2-(1-benzyl-1H-pyrazol-3-yl)-1-carboxy-ethylamino]-4-methyl pentanoic acid], the Ki was below 0.1 µM in experiment [2] (12 compound concentrations) and 0.1 to 0.5 µM in experiment [4] (12 compound concentrations, Ki=Kiapp/(1+[S]/Km)).
